Among the data in patent publication US5122523A, “N-acylamino acid derivatives and their pharmaceutical compositions” (Banyu Pharmaceutical Co., Ltd., priority 1987, dated 1992) are IC50 values, retold here.

The assay concerns the target T1, human plasma renin (Homo sapiens, UniProt P00797).
T1 construct: from tissue; host or cells: human plasma
T1 sequence (P00797 67-406): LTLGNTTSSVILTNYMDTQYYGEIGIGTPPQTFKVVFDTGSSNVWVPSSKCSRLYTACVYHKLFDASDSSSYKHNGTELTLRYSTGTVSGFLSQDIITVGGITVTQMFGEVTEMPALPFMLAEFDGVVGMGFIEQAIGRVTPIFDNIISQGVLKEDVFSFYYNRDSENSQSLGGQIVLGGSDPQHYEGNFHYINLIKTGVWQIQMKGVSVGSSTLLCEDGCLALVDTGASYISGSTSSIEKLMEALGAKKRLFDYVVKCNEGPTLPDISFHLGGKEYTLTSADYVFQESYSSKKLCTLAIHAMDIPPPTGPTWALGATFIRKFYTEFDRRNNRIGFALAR
In words: Renin inhibiting activities (human plasma, angiotensin I by radioimmunoassay). It is filed as biochemical. The conditions noted are these: pH7.4, 37° C., one hour. Here is the method: TEST EXAMPLE 1: Renin inhibiting activities
To 156 μl of a 0.2M sodium phosphate buffer solution (pH7.4), 40 μl of a solution mixture of 34 mM 8-hydroxyquinoline and 100 mM disodium ethylenediamine tetraacetate, 4 μl of dimethyl sulfoxide or a dimethyl sulfoxide solution of an inhibitor and 200 μl of human plasma were added and reacted at 37° C. for one hour. Then, pepstatin was added thereto to terminate the reaction, and the amount of the resulting angiotension I was measured by radio immunoassay whereby the inhibiting activity was determined.
By IC50 is commonly meant the point on the concentration scale where inhibition reaches its midpoint. Low readings indicate inhibition by little substance, high ones a need for much substance. `CCCC[C@H](NC(=O)[C@@H](CSc1ncccn1)Cc1cccc2ccccc12)C(=O)N[C@@H](CC(C)C)[C@@H](O)CC(CC)C(=O)NCC(C)C` (mixture of isomers) [Example 6, (2RS,4S,5S)-5-{L-N-[(2S)-3-(pyrimidin-2-yl)thio-2-(1-naphthylmethyl)propionyl]norleucyl}amino-2-ethyl-4-hydroxy-7-methyloctanoic acid isobutylamide] registered an IC50 of 1.6 nM.

Turning to `CCCC[C@H](NC(=O)[C@H](Cc1cccc2ccccc12)C[S+]([O-])c1ncccn1)C(=O)N[C@@H](CC(C)C)[C@@H](O)CC(CC)C(=O)NCC(C)C` (mixture of isomers) [Example 7, (2RS,4S,5S)-5-{L-N-[(2S)-3-(pyrimidin-2-yl)sulfinyl-2-(1-naphthylmethyl)propionyl]norleucyl}amino-2-ethyl-4-hydroxy-7-methyloctanoic acid isobutylamide], the IC50 amounted to 0.83 nM.

Compound `CCCC[C@H](NC(=O)[C@H](Cc1cccc2cccnc12)CS(=O)(=O)CC)C(=O)N[C@@H](CC(C)C)[C@@H](O)CC(CC)C(=O)NCC(C)C` (mixture of isomers) [Example 10, (2RS,4S,5S)-5-{L-N-[(2S)-3-ethylsulfonyl-2-(8-quinolylmethyl)propionyl]norleucyl}amino-2-ethyl-4-hydroxy-7-methyloctanoic acid isobutylamide] had an IC50 of 2 nM.

Compound `CCC(C[C@H](O)[C@H](CC(C)C)NC(=O)[C@H](Cc1c[nH]cn1)NC(=O)[C@H](Cc1cccc2ccccc12)CS(=O)(=O)CC)C(=O)NCC(C)C` (mixture of isomers) [Example 15, (2RS,4S,5S)-5-{L-N^α -[(2S)-3-ethylsulfonyl-2-(1-naphthylmethyl)propionyl]histidyl}amino-2-ethyl-4-hydroxy-7-methyloctanoic acid isobutylamide] showed an IC50 of 0.5 nM.

In turn, `CCCC[C@H](NC(=O)C(Cc1cccc2ccccc12)CS(=O)(=O)CC)C(=O)N[C@@H](CC(C)C)[C@@H](O)CC(CC)C(=O)NCC(C)C` (single isomer, unassigned) [Example 1, (2RS,4S,5S)-5-{L-N-[(2R or S)-3-ethylsulfonyl-2-(1-naphthylmethyl)propionyl]norleucyl}amino-2-ethyl-4-hydroxy-7-methyloctanoic acid isobutylamide] yielded an IC50 of 0.5 nM.

With `CCCC[C@H](NC(=O)C(Cc1cccc2ccccc12)CS(=O)(=O)c1ncccn1)C(=O)N[C@@H](CC(C)C)[C@@H](O)CC(CC)C(=O)NCC(C)C` (single isomer, unassigned) [Example 2, (2RS,4S,5S)-5-{L-N-[(2R or S)-3-(pyrimidin-2-yl)sulfonyl-2-(1-naphthylmethyl)propionyl]norleucyl}amino-2-ethyl-4-hydroxy-7-methyloctanoic acid isobutylamide], the IC50 was found to be 0.17 nM.

`CCCC[C@H](NC(=O)C(Cc1cccc2ccccc12)CS(=O)(=O)c1nnnn1C)C(=O)N[C@@H](CC(C)C)[C@@H](O)C[C@H](CC)C(=O)NCC(C)C` (single isomer, unassigned) [Example 4, (2S,4S,5S)-5-{L-N-[(2R or S)-3-(1-methyltetrazol-5-yl)sulfonyl-2-(1-naphthylmethyl)propionyl]norleucyl}amino-2-ethyl-4-hydroxy-7-methyloctanoic acid isobutylamide] registered an IC50 of 0.96 nM.

As to `CCCC[C@H](NC(=O)[C@@H](Cc1cccc2ccccc12)CS(=O)(=O)CC)C(=O)N[C@@H](CC(C)C)[C@@H](O)C[C@@H](CC)C(=O)NCCN1CCOCC1` (single isomer, unassigned) [Example 8, (2R or S,4S,5S)-5-{L-N-[(2R or S)-3-ethylsulfonyl-2-(1-naphthylmethyl)propionyl]norleucyl}amino-2-ethyl-4-hydroxy-7-methyloctanoic acid 2-morpholinoethylamide], the IC50 came out at 1.5 nM.

`CCCC[C@H](NC(=O)C(CCCSCC)Cc1cccc2ccccc12)C(=O)N[C@@H](CC(C)C)[C@@H](O)CC(CC)C(=O)NCC(C)C` (single isomer, unassigned) [Example 12, (2RS,4S,5S)-5-{L-N-[(2R or S)-5-ethylthio-2-(1-naphthylmethyl)pentanoyl]norleucyl}amino-2-ethyl-4-hydroxy-7-methyloctanoic acid isobutylamide] came in with an IC50 of 9.7 nM.

With `CCCC[C@H](NC(=O)C(CCCS(=O)(=O)CC)Cc1cccc2ccccc12)C(=O)N[C@@H](CC(C)C)[C@@H](O)CC(CC)C(=O)NCC(C)C` (single isomer, unassigned) [Example 13, (2RS,4S,5S)-5-{L-N-[(2R or S)-5-ethylsulfonyl-2-(1-naphthylmethyl)pentanoyl]norleucyl}amino-2-ethyl-4-hydroxy-7-methyloctanoic acid isobutylamide], 1.9 nM corresponded to half-maximal inhibition (IC50).

In the case of `CCCC[C@H](NC(=O)[C@H](Cc1cccc2ccccc12)CS(=O)(=O)CC)C(=O)N[C@@H](CC1CCCCC1)C(O)C(O)CSC` (single isomer, unassigned) [Example 21, (2RS,3R or S,4S)-4-{L-N-[(2S)-3-ethylsulfonyl-2-(1-naphthylmethyl)propionyl]norleucyl}amino-5-cyclohexyl-1-methylthio-2,3-pentanediol], inhibition was half-maximal at 8.9 nM (IC50).

In the case of `CCCC[C@H](NC(=O)C(Cc1cccc2ccccc12)CS(=O)(=O)CCO)C(=O)N[C@@H](CC1CCCCC1)[C@@H](O)[C@@H](O)CN1CCOCC1` (single isomer, unassigned) [Example 36, (2S,3R,4S)-4-{L-N-[(2S or R)-3-(2-hydroxyethyl)sulfonyl-2-(1-naphthylmethyl)propionyl]norleucyl}amino-5-cyclohexyl-1-morpholino-2,3-pentanediol], the IC50 was 2.7 nM.

`CCCC[C@H](NC(=O)[C@H](Cc1cccc2ccccc12)C[S+]([O-])c1ncccn1)C(=O)N[C@@H](CC1CCCCC1)[C@@H](O)[C@@H](O)CN1CCOCC1` (single isomer, unassigned) [Example 42] registered an IC50 of 3.6 nM.

Take `CCCC[C@H](NC(=O)C(Cc1ccccc1)CS(=O)(=O)C1CCCC1)C(=O)N[C@@H](CC1CCCCC1)[C@@H](O)[C@@H](O)CN1CCOCC1` (single isomer, unassigned) [Example 51(B), (2S,3R,4S)-4-{L-N-[(2S or R)-3-cyclopentanesulfonyl-2-benzylpropionyl]norleucyl}amino-5-cyclohexyl-1-morpholino-2,3-pentanediol]: the IC50 was found to be 2 nM.

`CCCC[C@H](NC(=O)[C@@H](CSc1nncs1)Cc1cccc2ccccc12)C(=O)N[C@@H](CC(C)C)[C@@H](O)CC(CC)C(=O)NCC(C)C` (stereo partly drawn) [Example 5, (2RS,4S,5S),-5-{L-N-[(2S)-3-(1,3,4-thiadiazol-2-yl)thio-2-(1-naphthylmethyl)propionyl]norleucyl}amino-2-ethyl-4-hydroxy-7-methyloctanoic acid isobutylamide] displayed an IC50 of 1.4 nM.

On to `CCC(C[C@H](O)[C@H](CC(C)C)NC(=O)[C@H](Cc1c[nH]cn1)NC(=O)[C@H](Cc1cccc2cccnc12)CS(=O)(=O)CC)C(=O)NCC(C)C` (stereo partly drawn) [Example 11, (2RS,4S,5S)-5-{L-N^α -[2(S)-3-ethylsulfonyl-2-(8-quinolylmethyl)propionyl]histidyl}amino-2-ethyl-4-hydroxy-7-methyloctanoic acid isobutylamide], for which the IC50 was 3.1 nM.
